Reference: US4243674A, “9-Hydroxydibenzo[b,d]pyrans and intermediates therefore” (priority 1978, dated 1981)
Where two headings read alike, the source gives them in different places.

How the values were obtained:
[1] = test system: tail immersion; experiment: Tail immersion procedure (TI); format: in vivo, male albino mice, Charles River CD-1 strain; settings: Mus musculus, 0.5 h, read-out: ANALGESIC ACTIVITY ED50, TI 1/2 hour
Experimental: (c) Tail Immersion Procedure
The method is a modification of the receptacle procedure developed by Benbasset, et al., Arch. int. Pharmacodyn., 122, 434 (1959). Male albino mice (19-21 g.) of the Charles River CD-1 strain are weighed and marked for identification. Five animals are normally used in each drug treatment group with each animal serving as its own control. For general screening purposes, new test agents are first administered at a dose of 56 mg./kg. intraperitoneally or subcutaneously, delivered in a volume of 10 ml./kg. Preceding drug treatment and at 0.5 and 2 hours post drug, each animal is placed in the cylinder. Each cylinder is provided with holes to allow for adequate ventilation and is closed by a round nylon plug through which the animal's tail protrudes. The cylinder is held in an upright position and the tail is completely immersed in the constant temperature waterbath (56° C.). The endpoint for each trial is an energetic jerk or twitch of the tail coupled with a motor response. In some cases, the endpoint may be less vigorous post drug. To prevent undue tissue damage, the trial is terminated and the tail removed from the waterbath within 10 seconds. The response latency is recorded in seconds to the nearest 0.5 second. A vehicle control and a standard of known potency are tested concurrently with screening candidates. If the activity of a test agent has not returned to baseline values at the 2-hour testing point, response latencies are determined at 4 and 6 hours. A final measurement is made at 24 hours if activity is still observed at the end of the test day.
(§1) Results of the above tests are recorded as percent maximum possible effect (% MPE). The % MPE of each group is statistically compared to the % MPE of the standard and the predrug control values. The % MPE is calculated as follows: [formula]
(§2) By means of the above procedures, the analgesic activity of several compounds of this invention and of certain prior art compounds are determined. The data are reported in terms of maximum possible effect.
(§3) PBQ=phenylbenzoquinone-induced writhing; TF=tail flick; HP=hot plate; RTC=rat tail clamp; FJ=flinch jump; and TI=tail immersion assays.

[2] = test system: flinch jump; experiment: Flinch-jump test (FJ); format: in vivo, male albino rats, Charles River (Sprague-Dawley) CD strain; settings: Rattus norvegicus, rats, 2 hours, read-out: ANALGESIC ACTIVITY ED50, FJ 2 hours
Text: Tests Using Electrical Nociceptive Stimuli
A modification of the flinch-jump procedure of Tenen, Psychopharmacologia, 12, 278-285 (1968) is used for determining pain thresholds. Male albino rats (175-200 g.) of the Charles River (Sprague-Dawley) CD strain are used. Prior to receiving the drug, the feet of each rat are dipped into a 20% glycerol/saline solution. The animals are then placed in a chamber and presented with a series of 1-second shocks to the feet which are delivered in increasing intensity at 30-second intervals. These intensities are 0.26, 0.39, 0.52, 0.78, 1.05, 1.31, 1.58, 1.86, 2.13, 2.42, 2.72 and 3.04 mA. Each animal's behavior is rated for the presence of (a) flinch, (b) squeak and (c) jump or rapid forward movement at shock onset. Single upward series of shock intensities are presented to each rat just prior to, and at 0.5, 2, 4 and 24 hours subsequent to drug treatment.
as §1, §2, §3

[3] = test system: hot plate; experiment: Mouse hot plate analgesic testing (HP); format: in vivo, mice; settings: for ED50: Mus musculus; for ED50 / ANALGESIC ACTIVITY ED50, HP: hot plate, mice
Experimental: (§4) Tests Using Thermal Nociceptive Stimuli
(a) Mouse Hot Plate Analgesic Testing
The method used is modified after Woolfe and MacDonald, J. Pharmacol. Exp. Ther., 80, 300-307 (1944). A controlled heat stimulus is applied to the feet of mice on a 1/8" thick aluminum plate. A 250 watt reflector infrared heat lamp is placed under the bottom of the aluminum plate. A thermal regulator, connected to thermistors on the plate surface, programs the heat lamp to maintain a constant temperature of 57° C. Each mouse is dropped into a glass cylinder (61/2" diameter) resting on the hot plate, and timing is begun when the animal's feet tough the plate. The mouse is observed at 0.5 and 2 hours after treatment when the test compound for the first "flicking"movements of one or both hind feet, or until 10 seconds elapse without such movements. Morphine has an MPE50 =4-5.6 mg./kg. (s.c.).
as §1, §2, §3

[4] = test system: tail flick; experiment: Mouse tail flick analgesic testing (TF); format: in vivo, mice; settings: for ED50: Mus musculus; for ED50 / ANALGESIC ACTIVITY ED50, TF: tail flick, mice
Text: as §4
(b) Mouse Tail Flick Analgesic Testing
Tail flick testing in mice is modified after D'Amour and Smith, J. Pharmacol. Exp. Ther., 72, 74-79 (1941), using controlled high intensity heat applied to the tail. Each mouse is placed in a snug-fitting metal cylinder, with the tail protruding through one end. This cylinder is arranged so that the tail lies flat over a concealed heat lamp. At the onset of testing, an aluminum flag over the lamp is drawn back allowing the light beam to pass through the slit and focus onto the end of the tail. A timer is simultaneously activated. The latency of a sudden flick of the tail is ascertained. Untreated mice usually react within 3-4 seconds after exposure to the lamp. The end point for protection is 10 seconds. Each mouse is tested at 0.5 and 2 hours after treatment with morphine and the test compound. Morphine has an MPE50 of 3.2-5.6 mg./kg. (s.c.).
as §1, §2, §3

[5] = test system: rat tail clamp; experiment: Haffner tail pinch procedure / rat tail clamp (RTC); format: in vivo, male albino rats, Charles River (Sprague-Dawley) CD strain; settings: for ED50: 1 hour, read-out: ANALGESIC ACTIVITY ED50, RTC 1 hour
Experimental: Tests Using Pressure Nociceptive Stimuli
Effect on the Haffner Tail Pinch Procedure
A modification of the procedure of Haffner, Experimentelle Prufung Schmerzstillender. Mittel Deutch Med. Wschr., 55, 731-732 (1929) is used to ascertain the effects of the test compound on aggressive attacking responses elicited by a stimulus pinching the tail. Male albino rats (50-60 b.) of the Charles River (Sprague-Dawley) CD strain are used. Prior to drug treatment, and again at 0.5, 1, 2 and 3 hours after treatment, a Johns Hopkins 2.5-inch "bulldog" clamp is clamped onto the root of the rat's tail. The endpoint at each trial is clear attacking and biting behavior directed toward the offending stimulus, with the latency for attack recorded in seconds. The clamp is removed in 30 seconds if attacking has not yet occurred, and the latency of response is recorded as 30 seconds. Morphine is active at 17.8 mg./kg. (i.p.).
as §1, §2, §3

[6] = test system: phenylbenzoquinone-induced writhing; experiment: Suppression of phenylbenzoquinone irritant-induced writhing (PBQ); format: in vivo, Carworth Farms CF-1 mice; settings: mice; for ED50: Mus musculus, read-out: ANALGESIC ACTIVITY ED50, PBQ
Experimental: Test Using Chemical Nociceptive Stimuli
Suppression of Phenylbenzoquinone Irritant-Induced Writhing
Groups of 5 Carworth Farms CF-1 mice are pretreated subcutaneously or orally with saline, morphine, codeine or the test compound. Twenty minutes (if treated subcutaneously) or fifty minutes (if treated orally) later, each group is treated with intraperitoneal injection of phenylbenzoquinone, an irritant known to produce abdominal contractions. The mice are observed for 5 minutes for the presence or absence of writhing starting 5 minutes after the injection of the irritant. MPE50 's of the drug pretreatments in blocking writhing are ascertained.
as §1, §2, §3

| Structure (SMILES) | ED50 ([1]; tail immersion, mice, 1/2 hour) [mg/kg] | ED50 [2] [mg/kg] | ED50 [3] [mg/kg] | ED50 [4] [mg/kg] | ED50 [5] [mg/kg] | ED50 [6] [mg/kg] | other results |
| --- | --- | --- | --- | --- | --- | --- | --- |
| CCCCCC(C)Oc1cc(O)c2c(c1)OC(C)(C)[C@@H]1CC[C@@H](O)C[C@@H]21 (relative stereo) [OCH(CH3)C5 H11, dl-6aβ,7,8,9,10,10aα-Hexahydro-1-Hydroxy-6,6-Dimethyl-3-(2-Heptyloxy)-6H-Dibenzo[b,d]pyran-9β-ol] | 0.7 | 0.3 | 1.2 | 0.46 | 0.34 | 0.16 | – |
| CC(CCCOc1ccccc1)c1cc(O)c2c(c1)OC(C)(C)[C@@H]1CC[C@@H](O)C[C@@H]21 (relative stereo) [CH(CH3)(CH2)3OC6 H5, dl-6aβ,7,8,9,10,10aα-hexahydro-1-hydroxy-6,6-dimethyl-3-(1-methyl-4-phenoxybutyl)-6H-dibenzo[b,d]pyran-9β-ol] | – | – | ~10 | 1.2 | – | 0.39 | – |
| CC(CCOc1ccccc1)c1cc(O)c2c(c1)OC(C)(C)[C@@H]1CC[C@@H](O)C[C@@H]21 (relative stereo) [CH(CH3)(CH2)2OC6 H5, dl-6aβ,7,8,9,10,10aα-hexahydro-1-hydroxy-6,6-dimethyl-3-(1-methyl-3-phenoxypropyl)-6H-dibenzo[b,d]pyran-9β-ol] | – | – | – | – | – | 0.1 to 1 | – |
| CC1(C)Oc2cc(OC3CCCCC3)cc(O)c2[C@@H]2C[C@H](O)CC[C@H]21 (relative stereo) [OC6 H11, dl-6aβ,7,8,9,10,10aα-1-hydroxy-6,6-dimethyl-3-cyclohexyloxy-6H-dibenzo[b,d]pyran-9β-ol] | – | – | > 10 | > 10 | – | 5.3 | – |
| CCCCCc1cc(O)c2c(c1)OC(C)(C)[C@@H]1CC[C@@H](O)C[C@@H]21 (relative stereo) [C5 H11, reference compound] | 13 | 8 | ≥ 17.8 | 3.2 | 58 | 0.68 | – |
| CC(CCc1ccccc1)c1cc(O)c2c(c1)OC(C)(C)[C@@H]1CC[C@@H](O)C[C@@H]21 (relative stereo) [CH(CH3)(CH2)2C6 H5, dl-6aβ,7,8,9,10,10aα-hexahydro-1-hydroxy-6,6-dimethyl-3-(1-methyl-3-phenylpropyl)-6H-dibenzo[b,d]pyran-9β-ol] | – | – | > 10 | > 10 | – | 5 | – |
| CN1CC[C@]23c4c5ccc(O)c4O[C@H]2[C@@H](O)C=C[C@H]3[C@H]1C5 [morphine, reference compound] | – | – | – | – | – | – | ED50 [1]: 4 mg/kg; ANALGESIC ACTIVITY ED50, HP [3]: 4.7 mg/kg; MPE50 hot plate ([3]; s.c., 57° C. plate): 4 to 5.6 mg/kg; MPE50 tail flick ([4]; s.c.): 3.2 to 5.6 mg/kg; ANALGESIC ACTIVITY ED50, TF [4]: 3.8 mg/kg; ANALGESIC ACTIVITY ED50, RTC (1/2 hr.) ([5]; 1/2 hr. (morphine only), 30 min): 2.9 mg/kg; ANALGESIC ACTIVITY ED50, PBQ [6]: 0.8 mg/kg |
| CC(CCCc1ccccc1)c1cc(O)c2c(c1)OC(C)C1CCC(O)CC21 (racemic) [CH(CH3)(CH2)3C6 H5^(a), dl-6aα-7,8,9,10,10a-hexahydro-1-hydroxy-6α-methyl-3-(1-methyl-4-phenylbutyl)-6H-dibenzo[b,d]pyran-9β-ol] | – | – | – | – | – | – | ANALGESIC ACTIVITY ED50, HP [3]: 5.6 mg/kg; ANALGESIC ACTIVITY ED50, TF [4]: 1.6 mg/kg; ANALGESIC ACTIVITY ED50, PBQ [6]: 0.94 mg/kg |
| CC(CCCc1ccccc1)c1cc(O)c2c(c1)OC(C)(C)[C@@H]1CC[C@@H](O)C[C@@H]21 (relative stereo) [CH(CH3)(CH2)3C6 H5, dl-6aβ,7,8,9,10,10aα-Hexahydro-1-hydroxy-6,6-dimethyl-3-(1-methyl-4-phenylbutyl)-6H-dibenzo[b,d]pyran-9β-ol] | 0.3 | 0.11 | 0.75 | 0.32 | 1.8 | 0.062 | – |
| CC(CCCc1ccncc1)c1cc(O)c2c(c1)OC(C)(C)[C@@H]1CC[C@@H](O)C[C@@H]21 (relative stereo) [CH2 (CH3)(CH2)34-pyridyl, dl-6aβ,7,8,9,10,10aα-hexahydro-1-hydroxy-6,6-dimethyl-3-[1-methyl-4-(4-pyridyl)butyl]-6H-dibenzo[b,d]pyran-9β-ol] | – | – | – | – | – | 0.17 | – |
| CC(CCc1ccccc1)Oc1cc(O)c2c(c1)OC(C)(C)[C@@H]1CC[C@@H](O)C[C@@H]21 (relative stereo) [OCH(CH3)(CH2)2C6 H5, dl-6aβ,7,8,9,10,10aα-hexahydro-1-hydroxy-6,6-dimethyl-3-(1-methyl-3-phenylpropoxy)-6H-dibenzo[b,d]pyran-9β-ol] | – | – | ~3.2 | 1.3 | – | 0.21 | – |
| CC(CCCCc1ccccc1)c1cc(O)c2c(c1)OC(C)(C)[C@@H]1CC[C@@H](O)C[C@@H]21 (relative stereo) [CH(CH3 (CH2)4C6 H5, dl-6aβ,7,8,9,10,10aα-hexahydro-1-hydroxy-6,6-dimethyl-3-(1-methyl-5-phenylpentyl)-6H-dibenzo[b,d]pyran-9β-ol] | 3.5 | 0.42 | 3.9 | 2.8 | < 3.2 | 1.33 | – |
| CCCCCC(C)C(C)c1cc(O)c2c(c1)OC(C)(C)[C@@H]1CC[C@@H](O)C[C@@H]21 (relative stereo) [CH(CH3)CH(CH3)C5 H11, reference compound] | 0.38 | 0.11 | 1.1 | 0.35 | 0.44 | 0.1 | – |
